Key:
[1] = Acid dissociation constant was reported; assay type: ADME
[2] = target: T1, Potassium-transporting ATPase alpha chain 1 (Sus scrofa, UniProt P19156); assay: Ability to inhibit H+/K+ stimulated ATPase activity in lympholised gastric vesicles; assay type: tissue-based, Stomach
Rattus norvegicus = assay: Compound was tested in vivo for its ability to inhibit pentagastrin-stimulated gastric acid secretion in the anesthetized lumen perfused rat at 10 umol/kg iv; assay type: functional; settings: Stomach
[3] = target: T1, Potassium-transporting ATPase alpha chain 1; assay: Compound was evaluated for its ability to inhibit K+-stimulated ATPase activity
[4] = Ability to inhibit Na(+)/K(+)-stimulated ATPase activity in hog kidney; set-up: species or system Sus scrofa

T1 sequence (P19156 whole entry, the tested form may be a part): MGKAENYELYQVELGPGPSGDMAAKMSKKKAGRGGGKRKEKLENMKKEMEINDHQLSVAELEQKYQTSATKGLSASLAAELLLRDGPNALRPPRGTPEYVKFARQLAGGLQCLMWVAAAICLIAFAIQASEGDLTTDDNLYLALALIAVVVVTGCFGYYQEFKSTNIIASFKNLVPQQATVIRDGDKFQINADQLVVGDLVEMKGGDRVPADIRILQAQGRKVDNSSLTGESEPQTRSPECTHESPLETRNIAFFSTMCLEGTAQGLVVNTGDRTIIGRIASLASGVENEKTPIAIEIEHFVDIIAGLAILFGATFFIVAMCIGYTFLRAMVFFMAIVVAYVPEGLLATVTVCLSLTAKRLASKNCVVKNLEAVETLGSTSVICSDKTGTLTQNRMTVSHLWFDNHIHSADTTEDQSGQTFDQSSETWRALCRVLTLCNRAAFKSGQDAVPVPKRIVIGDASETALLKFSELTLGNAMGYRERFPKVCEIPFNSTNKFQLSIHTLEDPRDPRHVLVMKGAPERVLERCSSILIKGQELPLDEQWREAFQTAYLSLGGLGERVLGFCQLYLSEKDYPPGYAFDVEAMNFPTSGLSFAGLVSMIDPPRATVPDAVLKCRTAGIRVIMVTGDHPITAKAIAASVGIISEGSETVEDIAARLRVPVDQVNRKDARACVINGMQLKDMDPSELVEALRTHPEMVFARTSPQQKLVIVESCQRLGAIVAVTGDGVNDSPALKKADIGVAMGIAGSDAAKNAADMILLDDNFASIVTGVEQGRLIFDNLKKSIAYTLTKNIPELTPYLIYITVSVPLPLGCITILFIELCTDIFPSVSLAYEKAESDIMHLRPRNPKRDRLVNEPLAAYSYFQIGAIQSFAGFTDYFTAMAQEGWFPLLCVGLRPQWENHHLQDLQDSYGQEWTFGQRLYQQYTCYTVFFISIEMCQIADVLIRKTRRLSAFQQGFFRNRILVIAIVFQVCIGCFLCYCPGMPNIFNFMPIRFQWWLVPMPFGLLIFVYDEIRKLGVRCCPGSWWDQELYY

## CCCc1nc(-c2ccccn2)c(-c2ccccc2C)s1
[1]
  pKa: 4.2
[2]
  IC50: 8.2 µM
Rattus norvegicus
  inhibition in vivo at 10 µmol/kg: 26%

## CCCc1nc(-c2cc(N)ccn2)c(-c2ccccc2C)s1
[1]
  pKa: 8
[3]
  Ki: 0.838 µM
[2]
  IC50: 2.2 µM
[4]
  IC50: 44 µM
Rattus norvegicus
  inhibition in vivo at 10 µmol/kg: 36%

## CCCc1nc(-c2ccccn2)c(-c2ccccc2)s1
[2]
  IC50: 42.3 µM
Rattus norvegicus
  inhibition in vivo at 10 µmol/kg: 21%

## CCOC(=O)c1cnc2c(OC)cccc2c1Nc1ccccc1C
[1]
  pKa: 6.7

## Cc1ccccc1N1CCc2cnc3c(C)cccc3c21
[2]
  IC50: 0.98 µM
Rattus norvegicus
  inhibition in vivo at 10 µmol/kg: 47%

## Cc1ccccc1-c1sc(Cc2ccccc2)nc1-c1ccccn1
[2]
  IC50: 9.6 µM
Rattus norvegicus
  inhibition in vivo at 10 µmol/kg: 29%

## CCCc1nc(-c2cccc(N)n2)c(-c2ccccc2C)s1
[2]
  IC50: 2.9 µM
Rattus norvegicus
  inhibition in vivo at 10 µmol/kg: 48%

## CCCc1nc(-c2cccc(NC)n2)c(-c2ccccc2C)s1
[2]
  IC50: 12.5 µM
Rattus norvegicus
  inhibition in vivo at 10 µmol/kg: 42%

## Cc1ccccc1-c1nc(-c2ccccn2)c(-c2ccccc2C)s1
[2]
  IC50: 4.9 µM

Source: ChEMBL document CHEMBL1159147, “4-(2-PYRTOYL)-5-phenylthiazoles as novel non-bicyclic reversible inhibitors of the gastric H+/K+-atpase” (Bioorg Med Chem Lett, 1995)
